Measured values published in patent publication US20130245110A1, “USE FOR CANNABINOIDS” (priority 2008, published 2013).
“And” between values parts separate entries of the source, which are not always exact repeats. Equal values may be shown once.

Test system: C57B1/6 ob/ob mouse
Assay: Liver triglyceride
Type: in vivo
Conditions: ob/ob mice, at termination, individual values
Description: Blood samples were also taken at −30 minutes for insulin analysis. • e) Blood Glucose analysis: Duplicate 20 μl samples of blood of were taken for each individual sample and placed in a 96-well assay plate. To each well was added 180 μl aliquots of glucose oxidase reagent. Samples were mixed and then left for approximately 30 minutes. Samples were then analysed automatically using a SpectraMax-250 and SoftMax Pro software. • f) Plasma preparation: Blood was collected for the measurement of i) plasma insulin, ii) cholesterol, iii) free fatty acids or iv) triglyceride concentration. • i. Plasma insulin analysis: Plasma insulin was measured using 5 μl of plasma, compared with a mouse insulin standard using a 96-well micro-assay plate • ii. Plasma cholesterol analysis: To each sample was added 200 μl of infinity cholesterol liquid stable reagent. The samples were mixed and incubated for 5 minutes before reading at dual wavelengths of 500 and 660 nm. • iii. Plasma free fatty acids: 5 μl samples of plasma were measured into a 96-well assay plate, to which was added 0.2 ml of reagents NEFA C • iv. […] Dedicated software was using to quantify amounts of bone and fat. The mice were lightly anaesthetised, sufficient to keep them quiescent during this non-invasive technique. • h) Energy expenditure measurements: Energy expenditure was measured by open circuit indirect calorimetry with mice in their home cages. […] Plasma leptin was measured in fed mice using the Crystal Chem Elisa assay. • j) Plasma adiponectin: Adiponectin exerts some of its weight reduction effects via the brain. […] Plasma adiponectin was measured in overnight fasted mice using the 96-well B-Bridge Elisa assay. • k) Plasma HDL-cholesterol: Plasma HDL-cholesterol was measured in fed mice using the kit from Trinity Biotech. • l) 24 h blood glucose profile: This was determined in order to ensure that changes in the diurnal control of blood glucose were detected. Thus blood samples were obtained at three hourly intervals throughout a continuous 24 h period. • m) Plasma haemoglobin AIC: Samples (10 μl) were analysed using the AIC. […]

In the case of `CCCc1cc(O)c2c(c1)OC(C)(C)[C@@H]1CCC(C)=C[C@@H]21` [THCV, tetrahydrocannabivarin], the Liver triglycerides concentration (0.3 mg·kg−1 daily oral gavage (combination: both 0.3)) was 17.16 and 11.16 and 14.94 and 15.48 and 9.10 and 16.72 and 9.33 and 14.97, the Liver triglycerides concentration (0.3 mg·kg−1 daily oral gavage (combination: both 0.3), listed as pure THCV) was “increased” and the Liver triglycerides concentration (3.0 mg·kg−1 daily oral gavage (combination: both 3.0)) was 8.70 and 15.20 and 10.77 and 9.78 and 12.06 and 13.92 and 18.27 and 14.09.
